The test addresses human recombinant H-PGDS (Homo sapiens, UniProt O60760). As to the kind of experiment: Fluorescence Intensity h-PGDS TBA Enzyme Assay. It counts as biochemical. The settings on record: 1:175,000 human recombinant H-PGDS, highest inhibitor concentration typically 1 μM. The gist of the method: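 Recombinant human H-PGDS preincubated 10 min at room temperature with inhibitor in 100 mM Tris pH 8.0, 100 μM MgCl2, 2.5 mM glutathione, 0.5% DMSO; 5.0 μM PGH2 added, stopped after 42 s with FeCl2/citric acid. Remaining PGH2 measured as MDA–TBA fluorescence (ex 530/em 565 nm); IC50 by 4-parameter fit, 11 concentrations.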

Chain of human recombinant H-PGDS (O60760 whole entry): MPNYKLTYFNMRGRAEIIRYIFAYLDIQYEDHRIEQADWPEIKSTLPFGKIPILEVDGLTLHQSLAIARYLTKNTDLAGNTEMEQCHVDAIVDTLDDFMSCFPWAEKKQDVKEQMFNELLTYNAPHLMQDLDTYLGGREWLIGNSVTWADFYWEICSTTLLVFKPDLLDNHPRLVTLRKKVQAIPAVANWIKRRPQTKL

On to `CS(=O)(=O)Cc1noc(CNC(=O)c2ccc(-c3cccc(F)c3)nc2)n1` [Example 167, 6-(3-Fluorophenyl)-N-({3-[(methylsulfonyl)methyl]-1,2,4-oxadiazol-5-yl}methyl)nicotinamide], for which the half-inhibitory concentration (IC50) (in general, the concentration at which inhibition is half-maximal) worked out at 0.285 µM.
As for “N-[2-(Benzyloxy)ethyl]-5-chloro-6-(3-fluorophenyl)nicotinamide [Example 555]”, the figure is 0.174 µM.
With `COc1cccc(-c2ccc(C(=O)NCc3ccc(-n4cncn4)cc3)cn2)c1` [Example 291, 6-(3-Methoxyphenyl)-N-[4-(1H-1,2,4-triazol-1-yl)benzyl]nicotinamide] the figure was 0.203 µM; with `CCc1nccn1CCCNC(=O)c1ccc(-c2cccc(F)c2)nc1` [Example 86, N-[3-(2-Ethyl-1H-imidazol-1-yl)propyl]-6-(3-fluorophenyl)nicotinamide], 0.0148 µM; with `CN1CCN(CC(CNC(=O)c2ccc(-c3cccc(F)c3)nc2)c2ccccc2)CC1` (stereo not drawn) [Example 103, 6-(3-Fluorophenyl)-N-[3-(4-methylpiperazin-1-yl)-2-phenylpropyl]nicotinamide], 0.316 µM.
Take `Cc1cc(C(F)(F)F)nc(CCNC(=O)c2ccc(-c3cccc(F)c3)nc2)n1` [Example 124, 6-(3-Fluorophenyl)-N-{2-[4-methyl-6-(trifluoromethyl)pyrimidin-2-yl]ethyl}nicotinamide]: the IC50 is 0.0183 µM.
As for `CCOC(=O)CCCNC(=O)c1ccc(-c2cccc(F)c2)nc1` [Example 192, Ethyl 4-({[6-(3-fluorophenyl)pyridin-3-yl]carbonyl}amino)butanoate], the figure is 0.00904 µM; as for `Cc1noc([C@H]2CC[C@H](CNC(=O)c3ccc(-c4cccc(F)c4)nc3)CC2)n1` [Example 11, 6-(3-Fluorophenyl)-N-{[trans-4-(3-methyl-1,2,4-oxadiazol-5-yl)cyclohexyl]methyl} nicotinamide], 0.0189 µM; as for `O=C(NCCc1cccs1)c1ccc(-c2ccc(F)cc2)nc1` [Example 507, 6-(4-Fluorophenyl)-N-[2-(2-thienyl)ethyl]nicotinamide], 0.578 µM.
Turning to `NC(CC(=O)NC(=O)c1ccc(-c2ccc(F)cc2)nc1)C1CC1` (stereo not drawn) [Example 269, N-(3-Amino-3-cyclopropylpropanoyl)-6-(4-fluorophenyl)nicotinamide], the IC50 came out at 0.672 µM.
As for `CC(C)CNC(=O)c1ccc(-c2cccc(F)c2)nc1` [Example 170, 6-(3-Fluorophenyl)-N-isobutylnicotinamide], the figure is 0.0261 µM.
With `Cc1noc(CCNC(=O)c2ccc(-c3ccc(F)cc3)nc2)n1` [Example 496, 6-(4-Fluorophenyl)-N-[2-(3-methyl-1,2,4-oxadiazol-5-yl)ethyl]nicotinamide] the figure was 0.429 µM; with `CCC(C)NC(=O)c1ccc(-c2cccc(C)c2)nc1` (stereo not drawn) [Example 450, N-sec-Butyl-6-(3-methylphenyl)nicotinamide], 0.0425 µM; with `COc1cccc(-c2ccc(C(=O)NCc3nnc(-c4cccnc4)[nH]3)cn2)c1` [Example 510, 6-(3-Methoxyphenyl)-N-[(5-pyridin-3-yl-4H-1,2,4-triazol-3-yl)methyl]nicotinamide], 0.575 µM.
As for `CNS(=O)(=O)c1ccc(CNC(=O)c2ccc(-c3ccccc3)nc2)cc1` [Example 397, N-{4-[(Methylamino)sulfonyl]benzyl}-6-phenylnicotinamide], the figure is 0.0188 µM; as for `COc1cccc(-c2ccc(C(=O)NC(C)c3ccncn3)cn2)c1` (stereo not drawn) [Example 299, 6-(3-Methoxyphenyl)-N-(1-pyrimidin-4-ylethyl)nicotinamide], 0.578 µM.
`CN1CCc2nc(N3CCC(NC(=O)c4ccc(-c5cccc(F)c5)nc4)C3)ncc2C1` (stereo not drawn) [Example 90, 6-(3-Fluorophenyl)-N-[1-(6-methyl-5,6,7,8-tetrahydropyrido[4,3-d]pyrimidin-2-yl)pyrrolidin-3-yl]nicotinamide]: the IC50 came to 0.000852 µM.
As for `CCOC(=O)CCCNC(=O)c1ccc(-c2ccccc2)nc1` [Example 386, Ethyl 4-{[(6-phenylpyridin-3-yl)carbonyl]amino}butanoate], the figure is 0.0232 µM; as for `CN1CCC(CNC(=O)c2ccc(-c3cccc(F)c3)nc2)CC1` [Example 113, 6-(3-Fluorophenyl)-N-[(1-methylpiperidin-4-yl)methyl]nicotinamide], 0.149 µM.
With `CC(C)OCCCNC(=O)c1ccc(-c2cccc(F)c2)nc1` [Example 37, 6-(3-Fluorophenyl)-N-(3-isopropoxypropyl) nicotinamide] the figure was 0.0158 µM.
For the molecule `COc1ccc(CNC(=O)c2cnc(-c3cccc(F)c3)c(Cl)c2)cc1OC` [Example 545, 5-Chloro-N-(3,4-dimethoxybenzyl)-6-(3-fluorophenyl)nicotinamide], the IC50 came to 0.0142 µM.
As for `CCCOCCCNC(=O)c1cnc(-c2cccc(F)c2)c(Cl)c1` [Example 550, 5-Chloro-6-(3-fluorophenyl)-N-(3-propoxypropyl)nicotinamide], the figure is 0.0304 µM.
As for `COCc1cc(CNC(=O)c2ccc(-c3cccc(F)c3)nc2)n[nH]1` [Example 36, 6-(3-Fluorophenyl)-N-{[5-(methoxymethyl)-1H-pyrazol-3-yl]methyl}nicotinamide], the figure is 0.0277 µM.
`Cc1noc(C)c1CCCNC(=O)c1ccc(-c2cccc(F)c2)nc1` [Example 91, N-[3-(3,5-Dimethylisoxazol-4-yl)propyl]-6-(3-fluorophenyl)nicotinamide]: the IC50 came to 0.00644 µM.
For the molecule `COc1cccc([C@H](C)NC(=O)c2ccc(-c3cccc(F)c3)nc2)c1` [Example 436, 6-(3-Fluorophenyl)-N-[(1S)-1-(3-methoxyphenyl)ethyl] nicotinamide], the concentration for half-maximal inhibition (IC50) was found to be 0.00612 µM.
With `CC(C)N1CCCC(CNC(=O)c2ccc(-c3cccc(F)c3)nc2)C1` (stereo not drawn) [Example 116, 6-(3-Fluorophenyl)-N-[(1-isopropylpiperidin-3-yl)methyl]nicotinamide] the figure was 0.163 µM; with `CC(C)CNC(=O)c1ccc(-c2ccccc2)nc1` [Example 378, N-Isobutyl-6-phenylnicotinamide], 0.021 µM.
With `CC(=O)N1CCC(CNC(=O)c2ccc(-c3ccccc3)nc2)CC1` [Example 387, N-[(1-Acetylpiperidin-4-yl)methyl]-6-phenylnicotinamide] the figure was 0.0209 µM; with `O=C(NCCCCO)c1ccc(-c2cccc(F)c2)nc1` [Example 149, 6-(3-Fluorophenyl)-N-(4-hydroxybutyl)nicotinamide], 0.0201 µM.
On to `CCN1CCCC(CNC(=O)c2ccc(-c3cccc(F)c3)nc2)C1` (stereo not drawn) [Example 114, N-[(1-Ethylpiperidin-3-yl)methyl]-6-(3-fluorophenyl)nicotinamide], for which the 50% inhibitory concentration (IC50) was 0.236 µM.
As for `COCCCNC(=O)c1ccc(-c2cccc(F)c2)nc1` [Example 442, 6-(3-Fluorophenyl)-N-(3-methoxypropyl)nicotinamide], the figure is 0.0413 µM.
As for `Cc1nnc(CNC(=O)c2ccc(-c3cccc(F)c3)nc2)o1` [Example 96, 6-(3-Fluorophenyl)-N-[(5-methyl-1,3,4-oxadiazol-2-yl)methyl]nicotinamide], the figure is 0.175 µM; as for `O=C(NCC1CCCN(C2CCOCC2)C1)c1ccc(-c2cccc(F)c2)nc1` (stereo not drawn) [Example 110, 6-(3-Fluorophenyl)-N-{[1-(tetrahydro-2H-pyran-4-yl)piperidin-3-yl]methyl}nicotinamide], 0.0871 µM.
Turning to `O=C(NCCN1CCCC1)c1ccc(-c2ccc(F)cc2)nc1` [Example 469, 6-(4-Fluorophenyl)-N-(2-pyrrolidin-1-ylethyl)nicotinamide], the IC50 was at least 1 µM.
As for `Cc1ncsc1CCCNC(=O)c1ccc(-c2cccc(F)c2)nc1` [Example 85, 6-(3-Fluorophenyl)-N-[3-(4-methyl-1,3-thiazol-5-yl)propyl]nicotinamide], the figure is 0.00488 µM.
For the molecule `COC(=O)CNC(=O)[C@H](C)NC(=O)c1ccc(-c2cccc(C)c2)nc1` [Example 229, Methyl N-{[6-(3-methylphenyl)pyridin-3-yl]carbonyl}-L-alanylglycinate], the half-maximal inhibitory concentration (IC50) worked out at 0.125 µM.
As for `CS(=O)(=O)c1cccc(CNC(=O)c2ccc(-c3cccc(F)c3)nc2)c1` [Example 189, 6-(3-Fluorophenyl)-N-[3-(methylsulfonyl)benzyl] nicotinamide], the figure is 0.00674 µM; as for `O=C(NCCc1nnc(-c2ccc(F)cc2)o1)c1ccc(-c2cccc(F)c2)nc1` [Example 200, 6-(3-Fluorophenyl)-N-{2-[5-(4-fluorophenyl)-1,3,4-oxadiazol-2-yl]ethyl}nicotinamide], 0.447 µM.
With `CC(C)(C)OCCNC(=O)c1ccc(-c2cccc(F)c2)nc1` [Example 134, N-(2-tert-Butoxyethyl)-6-(3-fluorophenyl)nicotinamide] the figure was 0.0477 µM.
For the molecule `C[C@H](O)CNC(=O)c1ccc(-c2cccc(F)c2)nc1` [Example 129, 6-(3-Fluorophenyl)-N-[(2S)-2-hydroxypropyl]nicotinamide], the IC50 came to 0.092 µM.
With `CNS(=O)(=O)c1ccc(CNC(=O)c2ccc(-c3cc(F)cc(OC)c3)nc2)cc1` [Example 559, 6-(3-Fluoro-5-methoxyphenyl)-N-{4-[(methylamino)sulfonyl]benzyl}nicotinamide], the half-inhibitory concentration (IC50) is 0.44 µM.
As for `O=C(NCc1ccc(Br)cc1)c1ccc(-c2ccccc2)nc1` [Example 513, N-(4-Bromobenzyl)-6-phenylnicotinamide], the figure is 0.0089 µM; as for `O=C(NCC1CN(CCc2ccccn2)C(=O)CO1)c1ccc(-c2cccc(F)c2)nc1` (stereo not drawn) [Example 105, 6-(3-Fluorophenyl)-N-{[5-oxo-4-(2-pyridin-2-ylethyl)morpholin-2-yl]methyl}nicotinamide], 0.0586 µM; as for `Cc1cccc(-c2ccc(C(=O)Nc3cccnc3)cn2)c1` [Example 488, 6-(3-Methylphenyl)-N-pyridin-3-ylnicotinamide], 0.0114 µM.
Take `CCCOCCCNC(=O)c1ccc(-c2cccc(F)c2)nc1` [Example 22, 6-(3-Fluorophenyl)-N-(3-propoxypropyl)nicotinamide]: the half-inhibitory concentration (IC50) turned out to be 0.0138 µM.

For the origin of these results see patent publication US20110306597A1, “Nicotinamide Derivatives” (priority 2008, published 2011).
